Here are results for 105 compounds from the RepoRT retention time repository (doi:10.1016/j.chroma.2015.11.014).

The nature of this data set: RP, Agilent ZORBAX Eclipse Plus C18, 150 × 2.1 mm, 3.5 µm, 40 °C, 0.3 mL/min, estimated dead time 1.1 min; A: water + 0.1% formic acid; B: acetonitrile + 0.1% formic acid; gradient (min/%B) 0/2 1/2 2/20 16.5/98 22/98. Conditions: stereoisomer not certain.

Consider `c1ccc(P(=N[P+](c2ccccc2)(c2ccccc2)c2ccccc2)(c2ccccc2)c2ccccc2)cc1`, for which the LC retention time is 12.3 min.
For `CC(=O)Nc1ccc(O)c(O)c1` the value was 4.47 min; for `NC(=O)CN1CCCC1=O`, 2.62 min.
With `Nc1nc(NC2CC2)c2ncn(C3C=CC(C(=O)O)C3)c2n1` (stereo not given), the LC retention time was 5.19 min.
For `Cc1c(N(C)C)c(=O)n(-c2ccccc2)n1C`, the LC retention time is 4.71 min.
For `CCCC[N+](C)(CCCC)CCCC` the value was 7.01 min; for `CCCCCCCCN`, 6.9 min; for `CCCCCCCCCCCC[N+](C)(C)CCCCCCCCCCCC`, 15.3 min.
In the case of `CCN(CC)CCNC(=O)c1cc(S(C)(=O)=O)ccc1OC` it was 4.86 min; in that of `Cn1c(=O)c2ncn(C)c2n(C)c1=O`, 4.73 min; in that of `CCCCCCCCCCC(C(=O)OCC)[N+](C)(C)Cc1ccccc1` (stereo not given), 11.7 min.
In the case of `O=C1CC(c2ccc(O)cc2)Oc2cc(O)cc(O)c21` (stereo not given) it was 9.18 min; in that of `Cc1ccccc1NC(=O)Nc1ccccc1C`, 11.1 min; in that of `CC(C)(C)OC(=O)C[P+](c1ccccc1)(c1ccccc1)c1ccccc1`, 8.83 min.
In the case of `CCCCC(CC)COC(=O)C(C#N)=C(c1ccccc1)c1ccccc1` (stereo not given), the LC retention time was 17.7 min.
In the case of `O=C1NC(=O)C(c2ccccc2)(c2ccc(O)cc2)N1` (stereo not given), the LC retention time is 7.26 min.
As for `CC(=O)Nc1ccccc1`, the LC retention time was 6.74 min.
For `CCSc1nc2ccccc2s1` the value was 13.7 min; for `O=C1NS(=O)(=O)c2ccccc21`, 5.2 min.
In the case of `Cc1ncc([N+](=O)[O-])n1CCO` it was 4.81 min.
In the case of `CCc1cccc(C)c1N(C(=O)C(=O)O)C(C)COC` (stereo not given) it was 9.91 min.
`O=c1c2ccccc2[nH]c2ccccc12`: the LC retention time is 8.5 min.
In the case of `CCOCCOC(=O)Nc1ccc(C)cc1` it was 10.8 min; in that of `COC1C(O)CC(=O)OC(C)CC=CC=CC(OC2CCC(N(C)C)C(C)O2)C(C)CC(CC=O)C1OC1OC(C)C(OC2CC(C)(O)C(O)C(C)O2)C(N(C)C)C1O` (stereo not given), 5.77 min; in that of `CC(C)c1ccccc1OP(=O)(Oc1ccccc1)Oc1ccccc1`, 15.8 min.
In the case of `Cc1nnc(-c2ccccc2)c(=O)[nH]1`, the LC retention time is 6.12 min.
`ON(Cc1ccccc1)Cc1ccccc1`: the LC retention time is 8.96 min.
For the compound `CN1C(C(=O)Nc2ccccn2)=C(O)c2ccccc2S1(=O)=O`, the LC retention time was 9.53 min.
For `CCCCCCCCCCCCCCCC(=O)OCC(O)COP(=O)([O-])OCC[N+](C)(C)C` (stereo not given) the value was 14.9 min.
For `C=CC[N+](CC)(CC)Cc1ccccc1` the value was 5.35 min; for `CCC(C(N)=O)N1CCCC1=O` (stereo not given), 5.14 min.
In the case of `CC(=O)Nc1cccc(O)c1` it was 5.68 min; in that of `CC(C)C(NC(=O)OC(C)(C)C)C(=O)O` (stereo not given), 9 min; in that of `CCCCOP(=O)(O)OCCCC`, 8.01 min.
`O=C(c1ccccc1)c1ccc(O)c(O)c1O`: the LC retention time was 9.4 min.
In the case of `CCCCCCCCCCCCCCCCCC[N+](C)(C)Cc1ccccc1` it was 14.9 min; in that of `CCOC(=O)c1cnc(N)nc1N`, 4.61 min.
In the case of `CC(=O)Nc1ccc(OC2OC(C(=O)O)C(O)C(O)C2O)cc1` (stereo not given) it was 4.58 min.
Take `O=P(Cc1ccccc1)(Cc1ccccc1)Cc1ccccc1`: the LC retention time was 11.6 min.
In the case of `CN(C)C(=N)N=C(N)N` it was 1.52 min; in that of `COC(=O)Nc1cccc(N)c1C`, 4.42 min.
For `CSc1ncnc2c1ncn2C1OC(CO)C(O)C1O` (stereo not given) the value was 5.67 min; for `Cc1c(NC=O)c(=O)n(-c2ccccc2)n1C`, 5.62 min; for `Cc1cc(OCCOCC[N+](C)(C)Cc2ccccc2)ccc1C(C)(C)CC(C)(C)C`, 12.3 min.
Consider `CCN(CC)C(=O)c1cccc(C)c1`, for which the LC retention time is 10.4 min.
`Nc1ccn(C2CSC(C(=O)O)O2)c(=O)n1` (stereo not given): the LC retention time was 2.46 min.
With `CCCCN1C=CC=CC1`, the LC retention time was 4.24 min.
For `CCOc1cc(CC(=O)NC(CC(C)C)c2ccccc2N2CCCCC2)ccc1C(=O)O` (stereo not given) the value was 10.3 min; for `CC(O)C(=O)N(C)c1ccccc1` (stereo not given), 6.76 min.
For `COC(=O)C1C2CC3c4[nH]c5cc(OC)ccc5c4CCN3CC2CC(OC(=O)c2cc(OC)c(OC)c(OC)c2)C1OC` (stereo not given) the value was 8.6 min.
In the case of `CC(C)OP(=O)(Oc1ccccc1)Oc1ccccc1` it was 12.8 min; in that of `COP(=O)(OC)OC`, 4.97 min; in that of `COC(=O)C(=Cc1ccc(OC)cc1)C(=O)OC`, 11 min.
Consider `C=C1CC23CCC4C(C)(C(=O)OC5OC(CO)C(O)C(O)C5O)CCCC4(C)C2CCC1(OC1OC(CO)C(O)C(O)C1OC1OC(CO)C(O)C(O)C1O)C3` (stereo not given), for which the LC retention time is 8.07 min.
On to `CC(C)CC(CN)CC(=O)O` (stereo not given), for which the LC retention time was 5.17 min.
For `O=C(O)c1ccccc1` the value was 7.56 min; for `COc1ccccc1-c1nc2ccccc2[nH]1`, 6.22 min.
In the case of `NC(=O)N1c2ccccc2C=Cc2ccccc21` it was 8.87 min; in that of `CC(=O)OC1(C(C)=O)CCC2C3CC(C)C4=CC(=O)CCC4(C)C3CCC21C` (stereo not given), 13.7 min; in that of `CCCC[N+](CCCC)(CCCC)Cc1ccccc1`, 9.13 min.
Regarding `CC(C)NCC(O)COc1cccc2[nH]c3ccccc3c12` (stereo not given), the LC retention time was 6.88 min.
For `S=c1[nH]c2ccccc2s1` the value was 9.12 min.
Regarding `NC(=O)N1c2ccccc2C=Cc2cc(O)ccc21`, the LC retention time is 7.48 min.
For the compound `COCCOC(=O)Nc1cccc(N)c1`, the LC retention time was 4.8 min.
In the case of `O=C(O)CCCCC(=O)O` it was 5.22 min; in that of `Cc1noc(NS(=O)(=O)c2ccc(N)cc2)c1C`, 7.56 min.
For `COc1cc(Cc2cnc(N)nc2N)cc(OC)c1O` the value was 4.78 min; for `CCCCCCN1C=CN(C)C1`, 5.73 min; for `Cn1c(=O)[nH]c2ncn(C)c2c1=O`, 5.06 min.
For `c1ccc(COCCC[P+](c2ccccc2)(c2ccccc2)c2ccccc2)cc1` the value was 9.73 min; for `OCc1coc(-c2ccccc2)n1`, 7.56 min; for `c1ccc2sc(C3CCCNC3)nc2c1` (stereo not given), 5.62 min.
As to `c1ccc(C[P+](c2ccccc2)(c2ccccc2)c2ccccc2)cc1`, the LC retention time was 8.71 min.
For `Cc1c(O)c(=O)n(-c2ccccc2)n1C` the value was 6.83 min; for `O=C(c1ccccc1)c1ccc2n1CCC2C(=O)O` (stereo not given), 9.5 min; for `CC(C)c1ccc(NC(=O)N(C)C)cc1`, 10.3 min.
On to `O=C(c1ccccc1)c1ccc(O)cc1O`, for which the LC retention time is 11 min.
As to `COc1ncnc(NS(=O)(=O)c2ccc(N)cc2)c1OC`, the LC retention time was 7.08 min.
For `C#CC1(O)CCC2C3CCC4=CC(=O)CCC4C3CCC21CC` (stereo not given) the value was 12.1 min; for `CC(C)(c1ccc(OCC(O)CO)cc1)c1ccc(OCC(O)CO)cc1` (stereo not given), 8.23 min; for `CCNC(=O)C1CC(C)CCC1C(C)C` (stereo not given), 11.8 min.
For `CN1C2CCC1C(C(=O)O)C(OC(=O)c1ccccc1)C2` (stereo not given) the value was 5.64 min; for `NC(Cc1ccc(Oc2ccc(O)cc2)cc1)C(=O)O` (stereo not given), 5.62 min; for `O=c1[nH]cnc2c1cnn2C1OC(CO)C(O)C1O` (stereo not given), 4.31 min.
In the case of `CC12C=CC(=O)C=C1CCC1C2C(=O)CC2(C)C1CCC2(O)C(=O)CO` (stereo not given) it was 8.47 min; in that of `O=C(NC1CCCCC1)NC1CCCCC1`, 10.8 min; in that of `CC(C)NCC(O)COc1ccc(C(O)C(N)=O)cc1` (stereo not given), 3.21 min.
As for `O=C1CC(c2ccccc2)Oc2ccccc21` (stereo not given), the LC retention time was 12.6 min.
In the case of `CCCCCCCCOc1ccc(C(=O)c2ccccc2)c(O)c1` it was 19 min; in that of `CC1(C)CC(O)CC(C)(C)N1O`, 5.7 min.
For `O=c1cc(-c2ccccc2)oc2cc(O)cc(O)c12` the value was 11 min; for `O=c1c(-c2ccc(O)cc2)coc2cc(O)ccc12`, 7.74 min.
In the case of `CCOC(=O)C1=C(C)NC(C)=C(C(=O)OC)C1c1cccc([N+](=O)[O-])c1` (stereo not given) it was 12.4 min; in that of `CCCCCCCCCCCCCC[N+](C)(C)C`, 11.5 min; in that of `CC[N+](CC)(CC)CC`, 2.28 min.
In the case of `CCCCCCCCCCCCCCCC[N+](C)(C)C`, the LC retention time was 12.8 min.
For `CSc1ccc(O)cc1C` the value was 9.8 min; for `Cc1cc(C)nc(NS(=O)(=O)c2ccc(N)cc2)n1`, 6.12 min; for `COc1ccc(O)cc1`, 6.96 min.
For `CCN1CCCC1CNC(=O)c1cc(S(=O)(=O)CC)c(N)cc1O` (stereo not given) the value was 5.62 min; for `CSc1nc(NC(C)C)nc(NC(C)C)n1`, 9.53 min.
In the case of `CC(=O)Nc1cc(N)cc(C(=O)O)c1` it was 4.46 min.
On to `CCN(CC)CC(=O)Nc1c(C)cccc1C`, for which the LC retention time was 5.77 min.
For `O=c1[nH]cnc2[nH]ncc12` the value was 3.15 min; for `O=c1[nH]sc2ccccc12`, 6.23 min.
